The text below walks through data of EP0672658B1, “Antithrombotic agents” (priority 1994, dated 1995).

SMILES strings stand for the structures. Structures can show the parent of a compound that is named as a salt. Some results are limits rather than exact numbers.

factor Xa, sequence (P00742 235-488 limits assumed): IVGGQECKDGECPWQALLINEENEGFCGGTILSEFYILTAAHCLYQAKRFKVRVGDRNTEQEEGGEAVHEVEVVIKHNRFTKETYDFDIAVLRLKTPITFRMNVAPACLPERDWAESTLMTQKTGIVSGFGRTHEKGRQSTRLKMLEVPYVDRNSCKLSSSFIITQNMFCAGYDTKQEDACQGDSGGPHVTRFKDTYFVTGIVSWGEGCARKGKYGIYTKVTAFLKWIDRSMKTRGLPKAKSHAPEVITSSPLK
factor Xa, sequence (P00742 41-179 partner limits assumed): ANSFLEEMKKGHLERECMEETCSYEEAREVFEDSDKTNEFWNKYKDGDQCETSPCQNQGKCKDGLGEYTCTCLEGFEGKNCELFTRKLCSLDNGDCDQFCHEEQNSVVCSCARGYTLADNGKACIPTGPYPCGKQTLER

The test system of one assay is human or animal plasma. Put plainly: Anticoagulation determination in plasma: thrombin time (TT). The settings on record: concentration doubling thrombin time. In kind it is biochemical. A digest of the protocol: (§1)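 Compounds spiked over a concentration range into citrated human, dog or rat plasma. PT used Thromboplastin-C; APTT used Actin reagent 120 s then 0.02 M CaCl2; TT used bovine thrombin 10 NIH units/mL. Concentration doubling clotting time estimated by linear extrapolation.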
Take `N=C(N)c1cccc(CCNC(=O)[C@@H]2CCCN2C(=O)[C@@H]2NCC[C@@H]3CCCC[C@@H]32)c1` [Example 29, 1-Piq-Pro-m-NHCH2CH2-C6H4C(=NH)NH2·2HCl]: the “Human Plasma Anticoagulation 2x Clotting time (ng/mL) TT” value is 750 ng/mL.
The same measure, in the same setting: with `N=C(N)c1ccc(CNC(=O)[C@@H]2CCCN2C(=O)[C@@H](Cc2ccccc2)NCC(=O)O)cc1` [Example 46, HOOCCH2-D-Phe-Pro-p-NHCH2C6H4C(NH)NH2·HCl] the figure was 2. ng/mL; with `O=C(O)CN[C@H](CC1CCCCC1)C(=O)N1CCC[C@H]1C(=O)NCCC1=CCNCC1` [Example 59, HO2CCH2-D-Cha-Pro-4-NHCH2CH2-3,4-dehydro-piperidine·HCl], 420 ng/mL; with `N=C(N)c1cccc(CNC(=O)[C@@H]2CCCN2C(=O)[C@@H]2NCC[C@@H]3CCCC[C@@H]32)c1` [Example 25, D-1-Piq-Pro-m-NHCH2-C6H4C(=NH)NH2·HCl], 1,430 ng/mL.

Another assay has as its target factor Xa (Homo sapiens, UniProt P00742). Put plainly: biochemical. The following applies: read-out: Kass Xa (converted). A digest of the protocol: (§2)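 Bovine trypsin and human factor Xa amidase activity measured chromogenically, following the human thrombin procedure. Substrates: N-Benzoyl-Ile-Glu-Gly-Arg-p-nitroanilide for factor Xa and N-Benzoyl-Phe-Val-Arg-p-nitroanilide for trypsin. Used for selectivity profiling.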
`N=C(N)c1cccc(CCNC(=O)[C@@H]2CCCN2C(=O)[C@@H]2NCC[C@@H]3CCCC[C@@H]32)c1` [Example 29, 1-Piq-Pro-m-NHCH2CH2-C6H4C(=NH)NH2·2HCl]: the Kd is 50 µM.
On the same count and under the same terms, with `N=C(N)c1ccc(CNC(=O)[C@@H]2CCCN2C(=O)[C@@H](Cc2ccccc2)NCC(=O)O)cc1` [Example 46, HOOCCH2-D-Phe-Pro-p-NHCH2C6H4C(NH)NH2·HCl] the figure was 14.3 µM.
Still for that read-out and setting: the figure for `O=C(O)CN[C@H](CC1CCCCC1)C(=O)N1CCC[C@H]1C(=O)NCCC1=CCNCC1` [Example 59, HO2CCH2-D-Cha-Pro-4-NHCH2CH2-3,4-dehydro-piperidine·HCl] is more than 1000 µM; for `N=C(N)c1cccc(CNC(=O)[C@@H]2CCCN2C(=O)[C@@H]2NCC[C@@H]3CCCC[C@@H]32)c1` [Example 25, D-1-Piq-Pro-m-NHCH2-C6H4C(=NH)NH2·HCl] it is more than 1000 µM.

For the next assay, the target named is t-PA (Homo sapiens, UniProt P00750). The assay is described as follows: biochemical. The settings on record: read-out: Kass t-PA (converted). A digest of the protocol: (§3)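 Amidase activity of human plasmin and t-PA (nt-PA single-chain; mt-PA6) was measured by a chromogenic method adapted from a thrombin assay. Substrates were H-D-Val-Leu-Lys-p-nitroanilide for plasmin and H-D-Ile-Pro-Arg-p-nitroanilide for t-PA.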
t-PA, sequence (P00750 36-562): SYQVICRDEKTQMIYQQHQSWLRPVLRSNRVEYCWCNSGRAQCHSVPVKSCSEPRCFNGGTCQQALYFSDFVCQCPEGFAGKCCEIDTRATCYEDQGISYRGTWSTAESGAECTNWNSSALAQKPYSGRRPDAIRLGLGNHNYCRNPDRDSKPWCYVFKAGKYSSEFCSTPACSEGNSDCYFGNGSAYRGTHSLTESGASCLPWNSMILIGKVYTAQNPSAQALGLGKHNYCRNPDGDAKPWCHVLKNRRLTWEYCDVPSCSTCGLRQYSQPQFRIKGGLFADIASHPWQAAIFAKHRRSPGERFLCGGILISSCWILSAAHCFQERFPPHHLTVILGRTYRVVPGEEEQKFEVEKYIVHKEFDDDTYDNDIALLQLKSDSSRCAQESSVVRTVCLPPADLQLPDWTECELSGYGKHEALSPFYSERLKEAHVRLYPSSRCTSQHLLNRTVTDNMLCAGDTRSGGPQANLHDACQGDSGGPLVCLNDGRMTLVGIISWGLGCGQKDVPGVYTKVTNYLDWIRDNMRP
`N=C(N)c1cccc(CCNC(=O)[C@@H]2CCCN2C(=O)[C@@H]2NCC[C@@H]3CCCC[C@@H]32)c1` [Example 29, 1-Piq-Pro-m-NHCH2CH2-C6H4C(=NH)NH2·2HCl]: the Kd is more than 1000 µM.
As for `N=C(N)c1ccc(CNC(=O)[C@@H]2CCCN2C(=O)[C@@H](Cc2ccccc2)NCC(=O)O)cc1` [Example 46, HOOCCH2-D-Phe-Pro-p-NHCH2C6H4C(NH)NH2·HCl], the Kd was 100 µM.
The same measure, in the same setting: the figure for `O=C(O)CN[C@H](CC1CCCCC1)C(=O)N1CCC[C@H]1C(=O)NCCC1=CCNCC1` [Example 59, HO2CCH2-D-Cha-Pro-4-NHCH2CH2-3,4-dehydro-piperidine·HCl] is more than 1000 µM.
Same read-out and setting: with `N=C(N)c1cccc(CNC(=O)[C@@H]2CCCN2C(=O)[C@@H]2NCC[C@@H]3CCCC[C@@H]32)c1` [Example 25, D-1-Piq-Pro-m-NHCH2-C6H4C(=NH)NH2·HCl] the figure was 100 µM.

The target of a further assay is T1, Plasmin (Homo sapiens, UniProt P00747).
T1 construct: Human plasmin is purchased; purchased Boehringer Mannheim, Indianapolis, Indiana
T1 sequence (P00747 581-810 limits assumed): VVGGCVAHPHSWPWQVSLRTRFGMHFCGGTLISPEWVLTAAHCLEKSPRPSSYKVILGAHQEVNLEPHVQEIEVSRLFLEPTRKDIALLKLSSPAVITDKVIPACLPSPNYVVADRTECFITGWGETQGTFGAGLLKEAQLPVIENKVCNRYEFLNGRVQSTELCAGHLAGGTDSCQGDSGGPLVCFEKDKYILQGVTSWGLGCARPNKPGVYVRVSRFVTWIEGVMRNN
T1 sequence (P00747 97-580 partner limits assumed): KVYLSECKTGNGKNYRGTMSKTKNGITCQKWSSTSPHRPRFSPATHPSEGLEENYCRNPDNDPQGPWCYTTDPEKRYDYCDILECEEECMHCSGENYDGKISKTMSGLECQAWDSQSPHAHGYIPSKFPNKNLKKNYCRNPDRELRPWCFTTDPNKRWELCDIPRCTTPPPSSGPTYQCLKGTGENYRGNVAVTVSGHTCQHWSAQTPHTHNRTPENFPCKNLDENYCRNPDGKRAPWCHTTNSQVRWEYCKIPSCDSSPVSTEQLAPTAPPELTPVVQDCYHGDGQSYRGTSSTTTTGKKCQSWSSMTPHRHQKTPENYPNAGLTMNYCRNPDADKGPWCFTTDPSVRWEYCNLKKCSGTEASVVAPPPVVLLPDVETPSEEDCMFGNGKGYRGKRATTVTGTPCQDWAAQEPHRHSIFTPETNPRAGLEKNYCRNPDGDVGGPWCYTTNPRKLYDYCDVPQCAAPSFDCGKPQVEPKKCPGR
Put plainly: biochemical. The following applies: read-out: Kass Plasmin (converted). A digest of the protocol:
as §3
On to `N=C(N)c1cccc(CCNC(=O)[C@@H]2CCCN2C(=O)[C@@H]2NCC[C@@H]3CCCC[C@@H]32)c1` [Example 29, 1-Piq-Pro-m-NHCH2CH2-C6H4C(=NH)NH2·2HCl], for which the Kd is more than 1000 µM.
Same read-out and setting: with `N=C(N)c1ccc(CNC(=O)[C@@H]2CCCN2C(=O)[C@@H](Cc2ccccc2)NCC(=O)O)cc1` [Example 46, HOOCCH2-D-Phe-Pro-p-NHCH2C6H4C(NH)NH2·HCl] the figure was 7.69 µM; with `O=C(O)CN[C@H](CC1CCCCC1)C(=O)N1CCC[C@H]1C(=O)NCCC1=CCNCC1` [Example 59, HO2CCH2-D-Cha-Pro-4-NHCH2CH2-3,4-dehydro-piperidine·HCl], more than 1000 µM.
For the compound `N=C(N)c1cccc(CNC(=O)[C@@H]2CCCN2C(=O)[C@@H]2NCC[C@@H]3CCCC[C@@H]32)c1` [Example 25, D-1-Piq-Pro-m-NHCH2-C6H4C(=NH)NH2·HCl], the Kd was more than 1000 µM.

For a further assay, the target named is Human Thrombin (Homo sapiens, UniProt P00734). The assay is described as follows: biochemical. The following applies: read-out: Kass Human Thrombin (converted).
Take `N=C(N)c1cccc(CCNC(=O)[C@@H]2CCCN2C(=O)[C@@H]2NCC[C@@H]3CCCC[C@@H]32)c1` [Example 29, 1-Piq-Pro-m-NHCH2CH2-C6H4C(=NH)NH2·2HCl]: the Kd was 1.32 µM.
Still for that read-out and setting: with `N=C(N)c1ccc(CNC(=O)[C@@H]2CCCN2C(=O)[C@@H](Cc2ccccc2)NCC(=O)O)cc1` [Example 46, HOOCCH2-D-Phe-Pro-p-NHCH2C6H4C(NH)NH2·HCl] the figure was 0.00417 µM.
Same read-out and setting: with `O=C(O)CN[C@H](CC1CCCCC1)C(=O)N1CCC[C@H]1C(=O)NCCC1=CCNCC1` [Example 59, HO2CCH2-D-Cha-Pro-4-NHCH2CH2-3,4-dehydro-piperidine·HCl] the figure was 0.909 µM.
On the same count and under the same terms, with `N=C(N)c1cccc(CNC(=O)[C@@H]2CCCN2C(=O)[C@@H]2NCC[C@@H]3CCCC[C@@H]32)c1` [Example 25, D-1-Piq-Pro-m-NHCH2-C6H4C(=NH)NH2·HCl] the figure was 2.33 µM.

Another assay concerns human or animal plasma. Put plainly: Anticoagulation determination in plasma: activated partial thromboplastin time (APTT). In kind it is biochemical. The settings on record: concentration doubling activated partial thromboplastin time. A digest of the protocol: as §1
For the compound `N=C(N)c1cccc(CCNC(=O)[C@@H]2CCCN2C(=O)[C@@H]2NCC[C@@H]3CCCC[C@@H]32)c1` [Example 29, 1-Piq-Pro-m-NHCH2CH2-C6H4C(=NH)NH2·2HCl], the “Human Plasma Anticoagulation 2x Clotting time (ng/mL) APTT” value is on record as 9,800 ng/mL.
The same measure, in the same setting: the figure for `N=C(N)c1ccc(CNC(=O)[C@@H]2CCCN2C(=O)[C@@H](Cc2ccccc2)NCC(=O)O)cc1` [Example 46, HOOCCH2-D-Phe-Pro-p-NHCH2C6H4C(NH)NH2·HCl] is 67 ng/mL; for `O=C(O)CN[C@H](CC1CCCCC1)C(=O)N1CCC[C@H]1C(=O)NCCC1=CCNCC1` [Example 59, HO2CCH2-D-Cha-Pro-4-NHCH2CH2-3,4-dehydro-piperidine·HCl] it is 5,500 ng/mL; for `N=C(N)c1cccc(CNC(=O)[C@@H]2CCCN2C(=O)[C@@H]2NCC[C@@H]3CCCC[C@@H]32)c1` [Example 25, D-1-Piq-Pro-m-NHCH2-C6H4C(=NH)NH2·HCl] it is 34,600 ng/mL.

The next assay relates to human or animal plasma. The assay is described as follows: Anticoagulation determination in plasma: prothrombin time (PT). In kind it is biochemical. The settings on record: concentration doubling prothrombin time. A digest of the protocol: as §1
Take `N=C(N)c1cccc(CCNC(=O)[C@@H]2CCCN2C(=O)[C@@H]2NCC[C@@H]3CCCC[C@@H]32)c1` [Example 29, 1-Piq-Pro-m-NHCH2CH2-C6H4C(=NH)NH2·2HCl]: the “Human Plasma Anticoagulation 2x Clotting time (ng/mL) PT” value was found to be 15.800 ng/mL.
Still for that read-out and setting: with `N=C(N)c1ccc(CNC(=O)[C@@H]2CCCN2C(=O)[C@@H](Cc2ccccc2)NCC(=O)O)cc1` [Example 46, HOOCCH2-D-Phe-Pro-p-NHCH2C6H4C(NH)NH2·HCl] the figure was 77 ng/mL.
On the same count and under the same terms, the figure for `O=C(O)CN[C@H](CC1CCCCC1)C(=O)N1CCC[C@H]1C(=O)NCCC1=CCNCC1` [Example 59, HO2CCH2-D-Cha-Pro-4-NHCH2CH2-3,4-dehydro-piperidine·HCl] is 7,000 ng/mL.
Same read-out and setting: with `N=C(N)c1cccc(CNC(=O)[C@@H]2CCCN2C(=O)[C@@H]2NCC[C@@H]3CCCC[C@@H]32)c1` [Example 25, D-1-Piq-Pro-m-NHCH2-C6H4C(=NH)NH2·HCl] the figure was 40,400 ng/mL.

The next assay concerns the target T2, Trypsin (Bos taurus, UniProt P00760).
T2 sequence (P00760 24-246): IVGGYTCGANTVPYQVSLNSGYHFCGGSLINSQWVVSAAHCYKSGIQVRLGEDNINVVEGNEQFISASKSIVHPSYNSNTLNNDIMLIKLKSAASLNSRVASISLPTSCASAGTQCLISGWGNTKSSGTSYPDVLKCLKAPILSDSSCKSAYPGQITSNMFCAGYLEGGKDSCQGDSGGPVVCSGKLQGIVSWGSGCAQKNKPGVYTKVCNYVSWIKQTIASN
The assay is described as follows: biochemical. The arrangement: species or system Bovine. The settings on record: read-out: Kass Trypsin (converted). Summed up:
as §2
On to `N=C(N)c1cccc(CCNC(=O)[C@@H]2CCCN2C(=O)[C@@H]2NCC[C@@H]3CCCC[C@@H]32)c1` [Example 29, 1-Piq-Pro-m-NHCH2CH2-C6H4C(=NH)NH2·2HCl], for which the Kd is 50 µM.
Take `N=C(N)c1ccc(CNC(=O)[C@@H]2CCCN2C(=O)[C@@H](Cc2ccccc2)NCC(=O)O)cc1` [Example 46, HOOCCH2-D-Phe-Pro-p-NHCH2C6H4C(NH)NH2·HCl]: the Kd was 0.0208 µM.
Take `O=C(O)CN[C@H](CC1CCCCC1)C(=O)N1CCC[C@H]1C(=O)NCCC1=CCNCC1` [Example 59, HO2CCH2-D-Cha-Pro-4-NHCH2CH2-3,4-dehydro-piperidine·HCl]: the Kd was 4.76 µM.
Still for that read-out and setting: with `N=C(N)c1cccc(CNC(=O)[C@@H]2CCCN2C(=O)[C@@H]2NCC[C@@H]3CCCC[C@@H]32)c1` [Example 25, D-1-Piq-Pro-m-NHCH2-C6H4C(=NH)NH2·HCl] the figure was 100 µM.
